How the values were obtained:
MMP2 = assay: Gelatin zymography of MMP2 activity in LPS-activated scleral fibroblasts and ARPE-19 cells; format: cell-based; conditions: LPS + 100 μM atropine or LPS + 50 μM diacerein; 48 hours
Method: To facilitate subsequent analysis, 1×10^6 cells were seeded in 24-well plates for at least 12 hours. […] To measure the MMP-2/MMP-9 activities, samples were separated using 8% SDS-PAGE containing 0.1% gelatin.

[1] = system: LEWIS rats, right eye induced myopia by FDM; assay: Refractive error and axial length in FDM myopia LEWIS rats (diclofenac); format: in vivo
Method: Four weeks LEWIS rats were used in this example. […] The refractive error and axial length of right eye were measured by refractometer within three weeks and recorded in Table 14.

[2] = system: MFD-induced myopia in hamster; assay: Effect of resveratrol on MFD-induced myopia in hamster (refractometer); format: in vivo; conditions: for Diopter, left eye (mean ± SD) / Diopter, right myopic eye (mean ± SD): 21 days
Method: 0.1141 g resveratrol (purchased from Sigma Aldrich Co.) powder was dissolved in 6 ml of ethanol to obtain resveratrol liquid. 1.46 g β-cyclodextrin (purchased from Sigma Aldrich Co.) was dissolved in 2 ml of sterile water to obtain a β-cyclodextrin solution (as a co-solvent); resveratrol liquid and β cyclodextrin were mixed in mole number of 1:2 by slowly adding dropwise β cyclodextrin solution into resveratrol liquid to form a mixture. The mixture was frozen drained, and then 5 ml artificial tears were added (purchased from Alcon company) to be re-dissolved to obtain 100 mM resveratrol solution. Resveratrol solution can be diluted by fetal bovine serum medium or artificial tears for various embodiments.
The refractive powers of hamsters were measured before experiment by refractometer (in China Medical University Hospital Department of Ophthalmology). The hamsters were administered artificial tears (referred to as control group) or various concentrations (3 mM, 30 mM, 100 mM) of resveratrol (experimental group) for five hamsters each group. The right eyes of the hamsters of each group were stitched; after 21 days, the stitches were all removed and then the refractive powers of each hamster were measured.

[3] = system: sclera and retina of hamster eyes; assay: Immunohistochemical analysis of COL1, TGF-β, TNF-α in resveratrol-treated hamster eyes; format: in vivo; conditions: 100 mM resveratrol
Method: […] Antigen retrieval was performed by boiling the slides in citrate buffer (pH 6.0); the sections were then stained with antibodies against IL-6, TNF-α, TGF-β, MMP2, c-Fos, NF-κB, and CHRM1 and 3. The EnVision System peroxidase kit (DAKO, Carpentaria, Calif., USA) was used to visualize immunoreactivity.

[4] = system: monocyte chemoattractant protein-1 (MCP-1); assay: LPS-induced MCP-1 expression in human retinal pigment epithelial cells; format: cell-based; conditions: 50 μM resveratrol and 1 μg/ml LPS for 24 hours
Method: Human retinal pigment epithelial cells were as model cells under LPS stimulation for 24 hours to induce inflammation and monocyte chemoattractant protein-1 (MCP-1), and then resveratrol was administered to detect the effect of suppressing inflammatory response.

[5] = system: Human retinal pigment epithelium; assay: Western blot of phosphorylated Akt and ERK after LPS in human retinal pigment epithelium; format: cell-based; conditions: 50 μM resveratrol pretreatment, then 500 ng/ml LPS
Method: Human retinal pigment epithelium was administrated 500 ng/ml LPS for 30 minutes to observe the expression of Akt and ERK.

[6] = system: monocular form deprivation (MFD) Syrian hamster; assay: Refractive power in monocular form deprivation (MFD) hamster model, streak retinoscope; format: in vivo, golden Syrian hamsters; conditions: for Myopia in the non-MFD eye: LPS and PGN but not PBS treatment; for Refractive power, BL: left eye before MFD / Refractive power, BR: right eye before MFD: LPS or PGN group, baseline; for Refractive error FR-BR / Refractive error FL-BL: LPS or PGN; for Refractive error FR-BR: MFD right eye; for Refractive error FL-BL: non-MFD left eye
Method: In this study, a total of 160 golden Syrian hamsters aged 3 weeks, weighing 80 to 90 g, and 20 albino guinea pigs, aged 2 to 3 weeks, were used for experiments. All animals were kept in a 12-hour light/dark cycle. All procedures were approved by the Institutional Animal Care and Use Committee of China Medical University and were conducted in accordance with the guidelines of the Use of Animals in Ophthalmic and Vision Research. Hamsters were raised with a right eyelid fusion for 21 days. Myopia was induced in the guinea pigs by covering the right eye with a cloth attached to the skin at a distance of at least 1 cm from the eye. MFD was induced in the right eye (with the left eye serving as a control) of animals randomly assigned to treatment or control groups (n=10 animals each) receiving daily applications of drug or phosphate-buffered saline (PBS), respectively, to both eyes.
(§1) The RE (i.e., spherical-component RE, which is defined as the mean RE in horizontal and vertical meridians) was measured using a hand-held streak retinoscope. Animals were anesthetized with 10% ether in O2. Ocular refraction was evaluated at the start and end of the experiment. At the end of the study, animals were sacrificed through CO2 asphyxiation according to the guidelines of the Public Health Service, Office of Laboratory Animal Welfare, National Institutes of Health, and American Association of Veterinary Medicine. Eyes were enucleated using a razor blade on an ice plate under a surgical microscope (Topcon, Tokyo, Japan) by cutting perpendicularly to the anterior-posterior axis approximately 1 mm posterior to the ora serrata. The iris and ciliary body of the anterior segment of the eye were separated. Posterior sclera was excised using a 7-mm-diameter trephine. The axial lengths were determined through A-scan ultrasonography (PacScan 300 Plus, NY, USA). The average of 10 unique measurements was used.

Syrian hamster = assay: Refractive power of hamsters without MFD after LPS or PGN; format: in vivo; conditions: for Refractive power, BL: left eye before treatment / Refractive power, BR: right eye before treatment: LPS or PGN group, baseline; for Refractive power, FL: left eye after treatment / Refractive power, FR: right eye after treatment / Refractive error FL-BL / Refractive error FR-BR: LPS or PGN; for Refractive power, FL: left eye after treatment / Refractive power, FR: right eye after treatment: 21 days; for Refractive error FL-BL: left eye; for Refractive error FR-BR: right eye
Method: as §1
To further test this possibility, LPS and PGN were applied to the eyes of hamsters without MFD.

Retinal cell (R28) = assay: Gene expression by real-time PCR in LPS-treated R28 retinal cells; format: cell-based, rat; conditions: R28; 100 ng/ml LPS for 4 hours
Method: (§2) R28 rat retinal epithelial cells were provided by Gail Seigel at the Ross Eye Institute (SUNY, Buffalo, N.Y., USA). The cells were cultured in Dulbecco's modified Eagle's medium (DMEM) with 10% fetal bovine serum (FBS) at 37° C. and 5% CO2, with medium replacement every 3 days to 4 days. Sclera were placed in a 60-mm culture dish in DMEM supplemented with 10% FBS to isolate primary scleral fibroblasts; those from fewer than three passages were used in experiments. […] Cell lysates were collected for quantitative (q)PCR to determine gene expression levels.
(§3) Total RNA was extracted using the RNeasy MiniKit (Qiagen, Valencia, Calif., USA), and 5 μg of RNA was reverse-transcribed to cDNA by using the Superscript First Strand Synthesis system (Invitrogen, Carlsbad, Calif., USA). Primers and probes used for qPCR were selected from the Universal Probes Library (Roche, West Sussex, UK). Transcript levels were normalized to those of glyceraldehyde 3-phosphate dehydrogenase in each sample.

Sclera fibroblast = assay: Gene expression by real-time PCR in LPS-treated primary scleral fibroblasts; format: cell-based, hamster; conditions: sclera fibroblast; 100 ng/ml LPS for 4 hours
Method: as §2, §3

[7] = system: sclera and retina of hamster eyes; assay: Immunohistochemistry of hamster eyes (sclera, retina); format: in vivo; conditions: for c-Fos and NF-κB expression / MMP2 and TGF-β expression / TGF-β and MMP2 expression: LPS or PGN; for IL-10 and TNF-α levels: LPS or PGN treatment; for MMP2 and TGF-β expression: MFD hamsters; for TGF-β and MMP2 expression: hamsters without MFD
Method: Antigen retrieval was performed by boiling the slides in citrate buffer (pH 6.0); the sections were then stained with antibodies against IL-6, TNF-α, TGF-β, MMP2, c-Fos, NF-κB, and CHRM1 and 3. The EnVision System peroxidase kit (DAKO, Carpentaria, Calif., USA) was used to visualize immunoreactivity.

[8] = system: monocular form deprivation (MFD) Syrian hamster; assay: Refractive power in monocular form deprivation (MFD) hamster model, streak retinoscope; format: in vivo, golden Syrian hamsters; conditions: LPS or 500 ng/mL PGN every second day for 21 days
[9] = 3 × diclofenac (3 mg/ml solution), right eye, three weeks, mean ± standard error

CC(=O)Oc1cccc2c1C(=O)c1c(OC(C)=O)cc(C(=O)O)cc1C2=O [diacerein]
MMP2 activities in cells activated by LPS (MMP2): decreased

O=C(O)Cc1ccccc1Nc1c(Cl)cccc1Cl [diclofenac]
Inhibitory effect on myopia, comparison of concentrations ([1]; 3 mg/ml vs 6 mg/ml): better in the concentration of 3 mg/ml than in 6 mg/ml | Δ Axial length [1, 9]: 1.04 ± 0.39 mm | Δ Refractive error [1, 9]: 5.36 ± 4.05 D | Δ Axial length ([1]; 6 × diclofenac (6 mg/ml solution), right eye, three weeks, mean ± standard error): 1.24 ± 0.55 mm | Effect on myopia process ([1]; diclofenac solution 3 mg/ml and 6 mg/ml): significant inhibitory effect

Oc1ccc(C=Cc2cc(O)cc(O)c2)cc1 [resveratrol]
Diopter, left eye (mean ± SD) ([2]; 3 mM resveratrol): −0.17 ± 0.24 Diopter | Diopter, right myopic eye (mean ± SD) ([2]; 3 mM resveratrol): −2.42 ± 1.30 Diopter | Diopter, left eye (mean ± SD) ([2]; 30 mM resveratrol): −0.63 ± 0.41 Diopter | Diopter, right myopic eye (mean ± SD) ([2]; 30 mM resveratrol): −2.46 ± 0.65 Diopter | Diopter, left eye (mean ± SD) ([2]; 100 mM resveratrol): −0.25 ± 1.53 Diopter | Diopter, right myopic eye (mean ± SD) ([2]; 100 mM resveratrol): −1.13 ± 1.47 Diopter | Inhibition of myopia, comparison of concentrations ([2]; 100 mM vs 3 mM and 30 mM): most effective | TNF-α expression in the retina [3]: follows the same trend as TGF-β | Collagen I protein expression in the sclera ([3]; stitched right eye): recovered | TGF-β expression in the retina ([3]; stitched right eye): reduction effect | Expression of MCP-1 [4]: decreasing | Expression of phosphorylated Akt and ERK [5]: decrease

lipopolysaccharide [LPS]
Myopia in the non-MFD eye [6]: induced | Refractive power, BL: left eye before MFD [6]: 11.92 ± 0.56 D | Refractive power, BR: right eye before MFD [6]: 12.30 ± 0.48 D | Refractive error FR-BR [6]: −5.9 ± 0.54 D | Refractive error FL-BL [6]: −4.13 ± 0.9 D | Refractive power, BL: left eye before treatment (Syrian hamster): 12.28 ± 0.97 D | Refractive power, BR: right eye before treatment (Syrian hamster): 12.25 ± 0.57 D | Refractive power, FL: left eye after treatment (Syrian hamster): 8.33±0.96 D | Refractive power, FR: right eye after treatment (Syrian hamster): 8.56±0.42 D | Refractive error FL-BL (Syrian hamster): −3.95 ± 0.97 D | Refractive error FR-BR (Syrian hamster): −3.69 ± 0.57 D | Chrm 1 gene expression level (Retinal cell (R28)): 1.39 ± 0.13 | Chrm 2 gene expression level (Retinal cell (R28)): 0.45 ± 0.23 | Chrm 3 gene expression level (Retinal cell (R28)): 1.27 ± 0.2 | Chrm 4 gene expression level (Retinal cell (R28)): 0.94 ± 0.15 | Chrm5 gene expression level (Retinal cell (R28)): 0.75 ± 0.21 | Fos gene expression level (Retinal cell (R28)): 1.39 ± 0.11 | IL1b gene expression level (Retinal cell (R28)): 4.3 ± 0.25 | IL10 gene expression level (Retinal cell (R28)): 0.56 ± 0.19 | IL-6 gene expression level (Retinal cell (R28)): 2.63 ± 0.15 | MMP2 gene expression level (Retinal cell (R28)): 1.32 ± 0.13 | NFkB gene expression level (Retinal cell (R28)): 1.13 ± 0.11 | Tgfb1 gene expression level (Retinal cell (R28)): 1.18 ± 0.12 | Tnfa gene expression level (Retinal cell (R28)): 1.56 ± 0.17 | Chrm 1 gene expression level (Sclera fibroblast): 1.49 ± 0.18 | Chrm 2 gene expression level (Sclera fibroblast): 1.48 ± 0.17 | Chrm 3 gene expression level (Sclera fibroblast): 1.58 ± 0.15 | Chrm 4 gene expression level (Sclera fibroblast): 1.07 ± 0.23 | Chrm5 gene expression level (Sclera fibroblast): 0.93 ± 0.15 | Fos gene expression level (Sclera fibroblast): 1.00 ± 0.11 | IL1b gene expression level (Sclera fibroblast): 2.84 ± 0.21 | IL10 gene expression level (Sclera fibroblast): 0.56 ± 0.19 | IL-6 gene expression level (Sclera fibroblast): 3.02 ± 0.16 | MMP2 gene expression level (Sclera fibroblast): 1.79 ± 0.17 | NFkB gene expression level (Sclera fibroblast): 4.50 ± 0.27 | Tgfb1 gene expression level (Sclera fibroblast): 2.15 ± 0.23 | Tnfa gene expression level (Sclera fibroblast): 1.49 ± 0.15 | c-Fos and NF-κB expression [7]: stimulated | IL-10 and TNF-α levels [7]: increased | MMP2 and TGF-β expression [7]: upregulation | TGF-β and MMP2 expression [7]: upregulation | Refractive power, FL: left eye after MFD [8]: 7.79±0.88 D | Refractive power, FR: right eye after MFD (occluded eye) [8]: 6.44±0.18 D

peptidoglycan [PGN]
Myopia in the non-MFD eye [6]: induced | Refractive power, BL: left eye before MFD [6]: 11.73 ± 0.25 D | Refractive power, BR: right eye before MFD [6]: 11.48 ± 0.49 D | Refractive error FR-BR [6]: −4.90 ± 0.83 D | Refractive error FL-BL [6]: −5.03 ± 0.43 D | Refractive power, BL: left eye before treatment (Syrian hamster): 12.22 ± 0.35 D | Refractive power, BR: right eye before treatment (Syrian hamster): 12.17 ± 1.04 D | Refractive power, FL: left eye after treatment (Syrian hamster): 8.67±0.63 D | Refractive power, FR: right eye after treatment (Syrian hamster): 9.14±1.21 D | Refractive error FL-BL (Syrian hamster): −3.55 ± 0.35 D | Refractive error FR-BR (Syrian hamster): −3.03 ± 1.04 D | c-Fos and NF-κB expression [7]: stimulated | IL-10 and TNF-α levels [7]: increased | MMP2 and TGF-β expression [7]: upregulation | TGF-β and MMP2 expression [7]: upregulation | Refractive power, FL: left eye after MFD [8]: 6.78±0.63 D | Refractive power, FR: right eye after MFD (occluded eye) [8]: 6.47±0.39 D

Source: US20210283087A1, “METHOD FOR TREATING AND RELIEVING MYOPIA” (China Medical University, priority 2014, published 2021)
